# Tested on: HIV
# Assay: Inhibitory activity for HIV infection (protection of HIV-infected MT-4 cells from death)
# Format: cell-based
# Conditions: 5 days incubation at 37° C., concentration preventing the death of 50% of the MT-4 cells
# Protocol: Inhibitory activity for HIV infection
# (§1) In RPMI 1640 DM culture medium containing 20 mM of Hepes buffer solution, 10% fetal bovine serum and 20 μg/ml of gentamycin, 3×10^4 MT-4 cells (human T cell clone which is destroyed by the infection of HIV) were infected with HIV in an amount of 100 times as large as expected to cause 50% infection of the cells. Immediately thereafter, a predetermined amount of sample was added to the culture medium using 50 mg/ml sample solutions in dimethyl sulfoxide and the cells were cultured at 37° C.
# (§2) After 5 days of incubation, the number of existing cells was counted to determine the concentration of the compound for preventing the death of 50% of the MT-4 cells. Separately, MT-4 cells were cultured in the same way as above except that they were not infected with HIV to determine the concentration of the compound at which 50% of the MT-4 cells were destroyed.
row,Compound,IC50 [nM]
1,1-(4-hydroxybutyl) -6-phenylthiothymine [Compound 31],13000
2,1-(methylthiomethyl)-6-phenylthiothymine [Compound 32],1200
3,1-[(2-acetoxyethoxy)methyl]-6-phenylthiothymine [Compound 2],6700
4,1-[(2-phenylcarbamoyloxyethoxy) methyl]-6-m-tolylthiothymine [Compound 16],21000
5,1-butyl-5-ethyl-6-phenylthiouracil [Compound 252],16
6,1-ethoxymethyl-5-ethyl-6-phenylthiouracil [Compound 247],16
7,"COCn1c(Sc2ccccc2)c(C)c(=O)[nH]c1=O [Compound 22, 1-(methoxymethyl)-6-phenylthiothymine]",2100

# Same assay, conditions: Human immunodeficiency virus 1, MT4, 120 h, 5 days incubation at 37° C., concentration preventing the death of 50% of the MT-4 cells
row,Compound,IC50 [nM]
1,"CC(=O)OCCOCn1c(Sc2ccccc2)c(C)c(=O)[nH]c1=S [Compound 1, 1-[(2-acetoxyethoxy)methyl]-6-phenylthio-2-thiothymine]",2800
2,"CCOCn1c(Sc2ccccc2)c(CC)c(=O)[nH]c1=S [Compound 358, 1-ethoxymethyl-5-ethyl-6-phenylthio-2-thiouracil]",26
3,"CCOCn1c(Cc2ccccc2)c(CC)c(=O)[nH]c1=O [Compound 472, 6-benzyl-1-ethoxymethyl-5-ethyluracil]",41

# Tested on: MT-4 cells
# Assay: Cytotoxicity to MT-4 cells not infected with HIV
# Format: cell-based
# Conditions: 5 days incubation, concentration at which 50% of the MT-4 cells were destroyed
# Protocol: as §1, §2
row,Compound,50% cytotoxic concentration to MT-4 cells [µM]
1,1-(4-hydroxybutyl) -6-phenylthiothymine [Compound 31],249
